Source: PubChem BioAssay (NCI)
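Method: 48-hour compound exposure of cells in 96-well plates, five concentrations, linear interpolation of endpoints. At the GI50, growth is halved. The concentration for full growth arrest is given as TGI.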

Key:
Assay in all cases: NCI-60 cell line screen, 48 h
[1] = tested on: NCI-H460 lung
[2] = tested on: RXF 393 renal
[3] = tested on: SK-MEL-2 melanoma
[4] = tested on: UACC-62 melanoma
[5] = tested on: HCT-15 colon
[6] = tested on: SN12C renal
[7] = tested on: CCRF-CEM leukemia
[8] = tested on: DU-145 prostate
[9] = tested on: BT-549 breast
[10] = tested on: UACC-257 melanoma

Row | SMILES | TGI [1] [µM] | TGI [2] [µM] | TGI [3] [µM] | TGI [4] [µM] | TGI [5] [µM] | TGI [6] [µM] | TGI [7] [µM] | GI50 [1] [µM] | GI50 [8] [µM] | TGI [8] [µM] | GI50 [3] [µM] | GI50 [4] [µM] | GI50 [9] [µM] | TGI [9] [µM] | GI50 [5] [µM] | GI50 [6] [µM] | GI50 [7] [µM] | GI50 [10] [µM] | TGI [10] [µM] | GI50 [2] [µM]
1 | O=C(O)CSc1n[nH]c(-c2ccccc2)n1 | > 100 | > 100 | > 100 | > 100 | > 100 | > 100 | > 100 | – | – | – | – | – | – | – | – | – | – | – | – | –
2 | COc1ccc2[nH]cc(-c3nc(-c4c[nH]c5ncccc45)cs3)c2c1 | > 100 | – | > 100 | > 100 | > 100 | > 100 | > 100 | 3.26 | 5.69 | > 100 | 8.36 | 3.66 | 5.35 | > 100 | 2.61 | 4.96 | 4.07 | – | – | –
3 | COc1cccc(/C=N/[N-]C(=O)c2ccncc2)c1[O-].[Cu+2].[OH3+] | > 100 | – | > 100 | > 100 | > 100 | > 100 | > 100 | 28.7 | – | – | > 100 | 28.9 | – | – | 62.8 | 49.7 | 27.9 | > 100 | > 100 | –
4 | C1CSCCSCCS1 | > 100 | > 100 | – | > 100 | > 100 | > 100 | > 100 | – | – | > 100 | – | – | – | > 100 | – | – | – | – | > 100 | –
5 | Cc1ccc(Cl)cc1Nc1nc(C(F)(F)F)ccc1C(=O)N1CCN(c2cccc(Cl)c2)CC1 | > 100 | – | > 100 | > 100 | > 100 | > 100 | > 100 | 90.1 | > 100 | > 100 | > 100 | 69.4 | > 100 | > 100 | > 100 | > 100 | > 100 | > 100 | > 100 | –
6 | CN(C)c1c([O-])c(=[N+](C)C)c1=O | > 100 | > 100 | > 100 | > 100 | > 100 | > 100 | > 100 | – | – | – | – | – | – | – | – | – | – | – | > 100 | –
7 | Cc1ccc(Cn2c(C)nc3c2C(=O)c2ccccc2C3=O)cc1 | 3.13 | 28.7 | 45.6 | 16.1 | 60 | > 100 | > 100 | – | – | – | – | – | – | – | – | – | – | – | 60.8 | –
8 | CC1=C2CCCC2=C/C(=N/Nc2ccc([N+](=O)[O-])cc2[N+](=O)[O-])CC1 | > 100 | > 100 | > 100 | > 100 | – | > 100 | > 100 | – | – | – | – | – | – | – | – | – | – | – | > 100 | –
9 | Nc1c(C(=O)Nc2cccc(Br)c2)sc2nc3c(cc12)C(=O)CCC3 | > 100 | 15.9 | – | > 100 | > 100 | > 100 | > 100 | 0.373 | 0.426 | > 61.6 | – | 0.516 | 3.1 | > 100 | 0.468 | 0.779 | 0.393 | > 100 | > 100 | 0.372
10 | O=C1[C@@H]2C3c4ccccc4C([C@@H]2C(=O)N1c1ccccc1)S3(=O)=O | > 100 | > 100 | > 100 | > 100 | > 100 | > 100 | > 100 | – | – | – | – | – | – | – | – | – | – | – | > 100 | –
11 | C[C@H]1NC(=O)C2CCCCN2C(=O)CN(C)C(=O)CNC(=O)C2CCCCN2C(=O)[C@@H](NC(=O)c2nc3ccccc3cc2O)[C@@H](C)NC(=O)C2CCCCN2C(=O)CN(C)C(=O)CNC(=O)[C@@H]2CCCCN2C(=O)C1NC(=O)c1nc2ccccc2cc1O (some centres undefined) | > 100 | 0.199 | 0.23 | 0.105 | > 100 | > 100 | 5.16 | – | – | – | – | – | – | – | – | – | – | – | 0.537 | –
12 | CC(=O)O[C@H]1CCC2[C@@H]3CCC4=C(O)c5nocc5C[C@]4(C)C3CC[C@@]21C (some centres undefined) | > 100 | > 100 | > 100 | > 100 | > 100 | > 100 | > 100 | – | – | – | – | – | – | – | – | – | – | – | > 100 | –
13 | CCC1C2C=CC(CC2)N1S(=O)(=O)c1ccc(C)cc1 (centres undefined) | 52.1 | – | 28.3 | 49.7 | 73.5 | 36.6 | > 100 | – | – | – | – | – | – | – | – | – | – | – | 93.5 | –
14 | Cc1ccc(NC(=O)C2C(=O)N(c3ccc(C)c(C)c3)C(=O)C2N=N)cc1C (centres undefined) | > 100 | > 100 | > 100 | > 100 | > 100 | > 100 | – | – | – | – | – | – | – | – | – | – | – | – | > 100 | –
15 | CCCCCCC[CH2][Sn]1([CH2]CCCCCCC)[O]C(=O)c2cccnc2[S]1 | > 100 | > 100 | > 100 | > 100 | > 100 | > 100 | > 100 | > 100 | – | – | > 100 | > 100 | – | – | > 100 | > 100 | > 100 | > 100 | > 100 | > 100
16 | CCc1cccc(C)c1NC(=O)C(=O)Cc1nc2ccccc2o1 | > 100 | > 100 | > 100 | > 100 | > 100 | > 100 | > 100 | – | – | – | – | – | – | – | – | – | – | – | > 100 | –
17 | O=C(CSc1nnc(-c2ccc(N=Cc3ccc(Cl)cc3)cc2)o1)Nc1ccc(Cl)cc1 | > 100 | > 100 | > 100 | > 100 | > 100 | > 100 | > 100 | – | – | – | – | – | – | – | – | – | – | – | > 100 | –
18 | CCOc1ccc(N2C(=O)/C(=C/c3ccc(N(CCC#N)CCC#N)cc3)N=C2c2cc([N+](=O)[O-])ccc2Cl)cc1 | 55.7 | > 100 | > 100 | 83.3 | > 100 | > 100 | – | – | – | – | – | – | – | – | – | – | – | – | – | –
19 | CCOc1ccc2nc(S/C(=C/C=C(C#N)C#N)c3ccc(C)cc3)sc2c1 | 57.9 | 46.7 | – | 54.1 | 28.8 | 46.4 | 5.52 | 22.7 | 40.5 | > 100 | – | 22 | 25.6 | 70.1 | 12.2 | 18.1 | 2.05 | > 100 | > 100 | 19.9
